Results: PubChem BioAssay AID1259407 (Chemical Carcinogenesis Research Information System (CCRIS), 2018)
Activity calls are given as the source filed them. The rule behind the calls is not given here.

Test system: CCRIS mutagenicity, Ames/micronucleus/aberration tests
Assay: CCRIS mutagenicity studies
Conditions: Test System: AMES SALMONELLA TYPHIMURIUM, Method: STANDARD PLATE

Measured: mutagenic call

Oc1ccc(O)c2c(O)c3ccccc3c(O)c12
inactive: Strain/Indicator: TA98, Metabolic Activation: NONE inactive; negative | Strain/Indicator: TA98, Metabolic Activation: RAT, LIVER, S-9, AROCLOR 1254 inactive; negative | Strain/Indicator: TA100, Metabolic Activation: NONE inactive; negative | Strain/Indicator: TA100, Metabolic Activation: RAT, LIVER, S-9, AROCLOR 1254 inactive; negative | Strain/Indicator: TA1535, Metabolic Activation: NONE inactive; negative | Strain/Indicator: TA1535, Metabolic Activation: RAT, LIVER, S-9, AROCLOR 1254 inactive; negative | Strain/Indicator: TA1538, Metabolic Activation: RAT, LIVER, S-9, AROCLOR 1254 inactive; negative
active: Strain/Indicator: TA1537, Metabolic Activation: NONE active; positive | Strain/Indicator: TA1537, Metabolic Activation: RAT, LIVER, S-9, AROCLOR 1254 active; positive
